Results taken from patent US8975275B2, “Use of chemotherapeutic agents” (priority 1999, dated 2015).
Counter-ions that a name gives are not always drawn.

Assays:
Type in all cases: in vivo, human
[1] = tested on: infected root canal and periapical region; assay: Topical treatment of the infected root canal and the periapical region (patient cases)
Method: In the clinical use of the compounds of formula (I) or formula (II), the pulp residues are removed first. The preparation of the canals is carried out with minimum discomfort for the patient. The canals are then flushed with hydrogen peroxide, Other methods of disinfection can be omitted. The compounds of formula (I) or formula (II), in a liquid form of administration, are then introduced into the toot canal under pressure using a cannula. The compounds of formula (I) or (II) are then injected in dissolved form or in a gelatinous form of administration. The root canal is subsequently occluded in the crown region, first with a cotton wool plug and then with zinc phosphate cement to seal the margins. If the canals are not gangrenous, the antibiotics remain in the canals for 3 days. […] The compounds of formula (I) or formula (II) can be used in concentrations of 0.005 mg/ml to 200 mg/ml.
In this application technique, which is known from intraligamental anaesthesia, the tooth is completely flooded with the antibacterial solution of the compounds of formula (I) or formula (II) in the entire root region.

osseomucosal wounds = assay: Topical treatment of osseomucosal wounds (patient cases)
Excerpt: Application is effected by flushing and/or by means of strip inserts impregnated with compounds of formula (I) or formula (II). They are to be used for example for postoperative infections following dentosurgical interventions (extractions). For this purpose the gel containing the compound of formula (I) or formula (II) is syringed directly into the extraction wound or onto a collagen sponge which remains in the extraction wound. The wound is closed for about half an hour by biting on a tampon. Prophylactic applications have been particularly successful after the extraction of teeth with focal infections, Liquid forms of administration suitable for flushing fistulae are those containing the compounds of formula (I) or formula (II) in concentrations of 0.005 mg/ml to 250 mg/ml. Preferred concentrations are those ranging from 0.5 to 100 mg/ml, Forms suitable for coating strips are gels containing the compounds of formula (I) or formula (II), as well as aqueous solutions or suspensions. These applications can contain the compounds of formula (I) or formula (II) in concentrations of 0.005 mg/ml to 200 mg/ml. Preferred concentrations for solutions are those ranging from 0.1 to 50 mg/ml Gelatinous forms of administration in concentrations of 25-150 mg/ml are preferred in the case of strip inserts.

[2] = tested on: wounds, bacterial skin infections, diabetic foot syndrome; assay: Wound care: topical/local application (patient cases); settings: for wound check-up, ulcer c) / wound check-up, ulcer a) / wound check-up, ulcer b): Patient D 3; for wound check-up: Patient D 4
Excerpt: Postoperative wound infections can generally occur in cases of inadequate infection prophylaxis following surgical interventions. Posttraumatic wound infections can arise due to cuts, stings, bruises, bites or gunshot wounds. Local perioperative prophylaxis can be carried out in the case of aseptic operations with a slight risk of infection. It is also possible to use local perioperative prophylaxis in addition to systemic perioperative prophylaxis, for example in the case of infections with an increased risk of infection, such as implantations, heart operations, transplantations, neurosurgical operations, operations in a highly contaminated area such as the oral cavity, oesophagus, rectum or colon, hysterectomy, bile duct operations, operations on patients with lowered resistance, or amputations. The local treatment of first, second or third degree burns can be administered prophylactically or after infection. […] Examples of hand infections are panaritium cutaueum, panaritium subcutaneum, panaritium ossale, panaritium articulate or tendovaginitis purulenta. In postoperative sepsis the infected wounds can be rendered substantially or completely free of microbes by the topical application of antibacterial agents. Gangrenes can be handled by local treatment with antibiotics in addition to therapy with parenteral antibiotics. Examples of acute bacterial skin infections are pyoderma, erysipelas, furuncles, carbuncles, phlegmons, abscesses, ulcus cruris, diabetic foot, infected decubital ulcers, blood blisters, erysipeloids or erytlrasma. Examples of chronic bacterial skin infections are lupus vulgaris, swimming-pool granuloma, Buruli ulcers or actinomycosis. Secondary bacterial infections occur for example in virus infections such as herpes simplex, herpes zoster or chicken-pox. Secondary bacterial infections of dermatoses occur for example in eczema, the exudation stage of neurodermatitis, vesicular dermatoses or contact dermatitis. Milder and moderate forms of acne and rosacea can also be treated locally.

[3] = gel (1%) weekly, after 2nd week

For `COc1c(N2C[C@@H]3CCCN[C@@H]3C2)c(F)cc2c(=O)c(C(=O)O)cn(C3CC3)c12` [moxifloxacin hydrochloride, 1-cyclopropyl-6-fluoro-1,4-dihydro-8-methoxy-7-[(4aS,7aS)-octahydro-6H-pyrrolo[3,4-b]pyridin-6-yl]-4-oxo-3-quinolinecarboxylic acid], the “clinical finding at check-up” value ([1]; Patient A 3.11, tooth 34 apical periodontitis, fistula, root canal insert gel 100 mg/ml, check-up after 10 days) was “patient symptom-free”, the “clinical finding at check-up” value ([1]; Patient A 3.12, tooth 44 fistulation, gangrenous, solution 50 mg/ml by paper point + intraligamental injection 50 mg/ml, check-up after 8 days) was “patient symptom-free” and the “clinical finding at check-up” value ([1]; Patient A 3.15, tooth 31 apical periodontitis due to gangrene, solution 50 mg/ml + gel 50 mg/ml + intraligamental injection 50 mg/ml, check-up after 9 days) was “patient symptom-free, canal odourless”. For the same compound, the “clinical finding at check-up” value ([1]; Patient A 3.21, repetition of flushing and insert, check-up after 10 days) was “patient symptom-free”, the “clinical finding at check-up” value ([1]; Patient A 3.21, tooth 22 fistula, gangrenous, flushing solution 50 mg/ml + gel 50 mg/ml + intraligamental injection 50 mg/ml, check-up after 8 days) was “patient still not fully symptom-free, canal still had very slight odor” and the “clinical finding at check-up” value ([1]; Patient A 3.3, tooth 11 apical periodontitis due to gangrene, solution 50 mg/ml + gel 50 mg/ml + intraligamental injection 50 mg/ml, check-up after 3 days) was “patient symptom-free, canal odourless”. For the same compound, the “clinical finding at check-up” value ([1]; Patient A 3.4, tooth 11 apical periodontitis, not gangrenous, root canal insert gel 50 mg/ml, check-up after 3 days) was “patient symptom-free”, the “clinical finding at check-up” value ([1]; Patient A 3.5, tooth 35 apical periodontitis due to gangrene, solution 50 mg/ml + gel 50 mg/ml + intraligamental injection 50 mg/ml, check-up after 7 days) was “no gangrenous odour, no bite discomfort” and the “clinical finding at check-up” value ([1]; Patient A 3.6, tooth 36 apical periodontitis due to gangrene, gel 50 mg/ml + intraligamental injection 50 mg/ml, check-up after 8 days) was “no gangrenous odour, patient symptom-free”. The “clinical finding at check-up” value ([1]; Patient A 3.7, tooth 14 apical periodontitis due to gangrene, gel 100 mg/ml + intraligamental injection 50 mg/ml, check-up after 7 days) was “patient symptom-free”, the “clinical finding at check-up” value ([1]; Patient A 3.8, tooth 34 apical periodontitis due to gangrene, gel 50 mg/ml + intraligamental injection 50 mg/ml, check-up after 13 weeks) was “patient symptom-free, canal odour-free” and the “clinical finding at check-up” value ([1]; Patient A 3.9, tooth 46 apical periodontitis, not gangrenous, gel 100 mg/ml + intraligamental injection 50 mg/ml, check-up after 7 days) was “patient symptom-free”. For the same compound, the “clinical finding at check-up” value (osseomucosal wounds; Patient C 1, wound care after extraction, depot of gel 50 mg/ml by gauze strip, check-up after 3 days) was “patient symptom-free, good wound margin adaptation”, the “clinical finding at check-up” value (osseomucosal wounds; Patient C 2, regio 36 fistulation, incision, flushing solution 50 mg/ml + strip insert gel 50 mg/ml, check-up after 3 days) was “patient symptom-free, good rapid healing process” and the “clinical finding at check-up” value (osseomucosal wounds; Patient C 3, teeth 26 and 46 apical granulomas, extraction (osteotomy), gauze with gel 50 mg/ml, check-up after 2 days) was “patient symptom-free”. For the same compound, the “clinical finding at check-up” value (osseomucosal wounds; Patient C 4, gauze with gel 50 mg/ml, check-up after one week) was “good wound margin adaptation, patient symptom-free”, the “clinical finding at check-up” value (osseomucosal wounds; Patient C 4, tooth 48 osteotomy, gauze with gel 50 mg/ml, check-up after 2 days) was “slight wound pain, no postoperative oedema” and the “clinical finding at check-up” value (osseomucosal wounds; Patient C 5, after root canal filling, check-up after 3 weeks) was “patient symptom-free”. The “clinical finding at check-up” value (osseomucosal wounds; Patient C 5, tooth 34 pulpitis purulenta, fistulation, flushing solution 50 mg/ml + canal insert and gauze insert gel 50 mg/ml, check-up after 3 days) was “good healing process, patient symptom-free”, the “clinical finding at check-up” value (osseomucosal wounds; Patient C 6, tooth 36 wound care after extraction, depot of gel 50 mg/ml by gauze strips, check-up after 3 days) was “patient symptom-free, good wound margin adaptation” and the “clinical finding at check-up” value (osseomucosal wounds; Patient C 7, tooth 22 root tip resection due to cyst, strip insert gel 50 mg/ml, check-up after 3 days) was “patient symptom-free, good healing process”. For the same compound, the “clinical finding at check-up” value (osseomucosal wounds; Patient C 9, same combined treatment, after root canal filling, check-up after 2 weeks) was “patient symptom-free”, the “clinical finding at check-up” value (osseomucosal wounds; Patient C 9, tooth 14 pulpitis purulenta, fistulation, moxifloxacin hydrochloride solution 25 mg/ml flushing + grepafloxacin gel 25 mg/ml canal insert + moxifloxacin hydrochloride gel 25 mg/ml gauze insert, check-up after 6 days) was “patient symptom-free” and the wound outcome ([2]; Patient D 1, combustio escharotica on left forearm, gel (1%), after one week) was “Regeneration of skin epithelium with complete wound closure”. For the same compound, the “wound check-up, ulcer c)” value ([2]; D IV/D V, gel (1%) weekly, after 2nd week) was “ulcer C IV/D V healed”, the “wound check-up, ulcer a)” value ([2]; deep 2×1.5 cm greasy ulcer under right big toe, dressings with gel (1%) at weekly intervals, after 1st week) was “ulcer D I, 1×0.5 cm, clean” and the “wound check-up, ulcer a)” value [2, 3] was “ulcer D I pinhead-size, clean”. For the same compound, the “wound check-up, ulcer a)” value ([2]; gel (1%) weekly, after 3rd week) was “ulcer D I unchanged”, the “wound check-up, ulcer a)” value ([2]; gel (1%) weekly, after 4th week) was “ulcer D I healed” and the “wound check-up, ulcer c)” value ([2]; large fissure D IV/D V, dressings with gel (1%) at weekly intervals, after 1st week) was “ulcer D IV/D V encrusted”. For the same compound, the “wound check-up, ulcer b)” value ([2]; large ulcer D III, dressings with gel (1%) at weekly intervals, after 1st week) was “ulcer D III clean”, the “wound check-up, ulcer b)” value ([2]; ulcer D III, gel (1%) weekly, after 2nd week) was “ulcer D III, clean granular tissue” and the “wound check-up, ulcer b)” value ([2]; ulcer D III, gel (1%) weekly, after 3rd week) was “ulcer D III pinhead-size”. For the same compound, the “wound check-up, ulcer b)” value ([2]; ulcer D III, gel (1%) weekly, after 4th week) was “ulcer D III healed”, the wound check-up ([2]; diabetic foot syndrome, 1×1 cm greasy ulcer, dressings with gel (1%) at weekly intervals, after 1st week) was “ulcer 0.2×0.4 cm, clean” and the wound check-up [2, 3] was “ulcer healed”. For the same compound, the wound outcome ([2]; Patient D 5, diabetic gangrene on left big toe, four applications of gel (1%) at weekly intervals) was “Regeneration of skin epithelium with complete wound closure, revascularization”, the clinical outcome ([2]; Patient D 7, phlegmons on palm of left hand, incision, local antibiosis with gel (1%), repeated after 2 days) was “Patient symptom-free” and the clinical outcome ([2]; Patient D 9, carbuncle on back of neck, excision, open wound treatment with impregnated compress) was “Patient symptom-free”.
